Experimental data from PMC9150102 (Journal of Medicinal Chemistry, 2022).

Tests used:
SERCA2a [1] = target: T1, SERCA2a (Cavia porcellus, UniProt A0A286XFU8); experiment: SERCA2a ATPase activity, Ca2+ dependency in cardiac SR microsomes from healthy guinea pigs; type: biochemical, guinea pig; settings: for SERCA2a KdCa reduced by / SERCA2a Vmax: 1 nM
T1 construct: from tissue; host or cells: guinea pig left ventricle, SR-enriched microsomes
Description: SERCA2a ATPase activity was assessed in SR preparations from healthy guinea pig hearts. Ca^2+ dependency of ATPase activity was measured, and kinetic parameters (KdCa and Vmax) were estimated at compound concentrations of 10 and 100 nM.
[…] […] Data are the mean ± SEM. *p < 0.05 (one-way RM ANOVA plus post hoc Tukey’s multiple comparisons or paired t-test).
Measurements were performed in cardiac SR microsomes (guinea pig) and in whole tissue homogenates (rat). Cardiac preparations included SERCA2a and PLN. To test for PLN involvement in the effect of compounds, SERCA1 activity was measured in PLN-free microsomes (from guinea pig skeletal muscle) before and after reconstitution with the synthetic PLN1–32 inhibitory fragment at a ratio of 300:1 for PLN/SERCA. […] Either an increase in Vmax (rat) or a decrease in KdCa (increased Ca^2+ affinity) (guinea pig) stands for enhancement of SERCA function. […]
(§1) Left ventricles (LV) were dissected from rat and guinea -pig of healthy and failing preparations and frozen until use. Tissues were homogenized, subjected to centrifugation to obtain SR -enriched microsomes and sarcomeric proteins were extracted, as previously described 4.
(§2) In the case of guinea-pig hearts, LV tissues were homogenized in 4 volumes of 10 mM NaHCO3, 1 mM PMSF, 10 μg/ml aprotinin and leupeptin (pH 7) and centrifuged at 12,000g for 15 minutes. Supernatants were filtered and centrifuged at 100,000 g for 30 min. Contractile proteins were extracted by suspending the pellets with 0.6 M KCl, 30 mM histidine, pH 7 and further centrifugation at 100,000 g for 30 min.
(§3) Final pellets were reconstituted with 0.3 M sucrose, 30 mM histidine, pH 7, to obtain SR-enriched […]
SERCA2a ATPase activity was measured as the rate of 32P-ATP release at multiple Ca2+ concentrations (100-2000 nM) in the absence and presence of tested compounds, as previously described5. Increasing concentrations of each compound were pre-incubated with 2 μg of cardiac preparations for 5 min at 4° C in 80 μl of a solution containing 100 mM KCl, 5 mM MgCl2, 1 μM A23187, 20 mM Tris, pH 7.5. Then, 20 μl of 5 mM Tris-ATP containing 50 nCi of 32P-ATP (3-10 Ci/mmol, Perkin Elmer) were added. The ATP hydrolysis was continued for 15 min at 37°C and the reaction was stopped by acidification with 100 μl of 20% ice-cold perchloric acid. 32P was separated by centrifugation with activated charcoal (Norit A, Serva) and the radioactivity was measured. SERCA2a-dependent ATPase activity was identified as the portion of total hydrolytic activity inhibited by cyclopiazonic acid (CPA, 10 µM). Technical replicates were used to ensure the reliability of single values. […]

SERCA1 = target: T2, SERCA1 (Cavia porcellus, UniProt H0UXI0); experiment: SERCA1 ATPase activity in PLN-free skeletal muscle microsomes; type: biochemical, guinea pig; settings: 30 to 1000 nM
T2 construct: from tissue; host or cells: adult male guinea pig fast-twitch hind leg muscle, SR microsomes
T2 sequence (H0UXI0 1-1001): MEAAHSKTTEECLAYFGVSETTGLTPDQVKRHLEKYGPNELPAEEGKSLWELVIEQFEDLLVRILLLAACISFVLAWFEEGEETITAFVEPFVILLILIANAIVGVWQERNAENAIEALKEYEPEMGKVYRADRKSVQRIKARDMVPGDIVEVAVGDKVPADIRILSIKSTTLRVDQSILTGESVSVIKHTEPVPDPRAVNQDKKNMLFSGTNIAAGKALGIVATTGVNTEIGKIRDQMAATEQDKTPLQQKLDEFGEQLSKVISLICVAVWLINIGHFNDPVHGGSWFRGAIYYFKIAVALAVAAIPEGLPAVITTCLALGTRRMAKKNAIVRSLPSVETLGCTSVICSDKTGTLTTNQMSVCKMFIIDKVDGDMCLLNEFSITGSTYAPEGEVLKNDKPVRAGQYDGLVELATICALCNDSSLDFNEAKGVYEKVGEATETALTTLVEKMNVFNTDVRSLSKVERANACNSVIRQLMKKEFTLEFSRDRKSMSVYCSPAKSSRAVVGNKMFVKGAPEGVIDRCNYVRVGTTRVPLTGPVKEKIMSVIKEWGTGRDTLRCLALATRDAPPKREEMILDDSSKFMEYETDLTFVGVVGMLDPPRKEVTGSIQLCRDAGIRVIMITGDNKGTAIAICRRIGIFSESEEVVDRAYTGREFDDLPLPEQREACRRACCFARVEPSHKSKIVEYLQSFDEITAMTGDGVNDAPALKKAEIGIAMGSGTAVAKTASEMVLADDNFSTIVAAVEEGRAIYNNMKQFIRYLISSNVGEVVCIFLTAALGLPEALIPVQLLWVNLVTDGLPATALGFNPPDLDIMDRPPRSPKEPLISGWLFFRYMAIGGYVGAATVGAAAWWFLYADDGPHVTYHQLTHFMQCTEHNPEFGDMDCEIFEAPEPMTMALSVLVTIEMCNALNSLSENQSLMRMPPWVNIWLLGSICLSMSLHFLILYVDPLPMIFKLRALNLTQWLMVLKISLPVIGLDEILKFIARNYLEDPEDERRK
Description: (§4) Data are the mean ± SEM. *p < 0.05 (one-way RM ANOVA plus post hoc Tukey’s multiple comparisons or paired t-test).
(§5) Measurements were performed in cardiac SR microsomes (guinea pig) and in whole tissue homogenates (rat). Cardiac preparations included SERCA2a and PLN. To test for PLN involvement in the effect of compounds, SERCA1 activity was measured in PLN-free microsomes (from guinea pig skeletal muscle) before and after reconstitution with the synthetic PLN1–32 inhibitory fragment at a ratio of 300:1 for PLN/SERCA. […] Either an increase in Vmax (rat) or a decrease in KdCa (increased Ca^2+ affinity) (guinea pig) stands for enhancement of SERCA function.
(§6) (rats). As verified by Western blot, cardiac microsomes preparations included SERCA2a and PLN and skeletal muscle ones included SERCA1 only.
(§7) SERCA stimulation4, compounds were also tested on SERCA1 in microsomes of guinea-pig skeletal muscle (PLN-free) before and after reconstitution with the PLN1-32 inhibitory fragment at a ratio of 300:1 […]
SERCA2a ATPase activity was measured as the rate of 32P-ATP release at multiple Ca2+ concentrations (100-2000 nM) in the absence and presence of tested compounds, as previously described5. […] 32P was separated by centrifugation with activated charcoal (Norit A, Serva) and the radioactivity was measured. […]

[2] = tested on: SERCA1 reconstituted with PLN1–32 fragment; experiment: SERCA1 ATPase activity after reconstitution with PLN1-32 fragment; type: biochemical, guinea pig; settings: 30 to 1000 nM
Description: as §4, §5, §6, §7
Tissues were homogenized, subjected to centrifugation to obtain SR -enriched microsomes and sarcomeric proteins were extracted, as previously described 4.
as §2, §3
SERCA2a ATPase activity was measured as the rate of 32P-ATP release at multiple Ca2+ concentrations (100-2000 nM) in the absence and presence of tested compounds, as previously described5. Increasing concentrations of each compound were pre-incubated with 2 μg of cardiac preparations for 5 min at 4° C in 80 μl of a solution containing 100 mM KCl, 5 mM MgCl2, 1 μM A23187, 20 mM Tris, pH 7.5. Then, 20 μl of 5 mM Tris-ATP containing 50 nCi of 32P-ATP (3-10 Ci/mmol, Perkin Elmer) were added. The ATP hydrolysis was continued for 15 min at 37°C and the reaction was stopped by acidification with 100 μl of 20% ice-cold perchloric acid. 32P was separated by centrifugation with activated charcoal (Norit A, Serva) and the radioactivity was measured. SERCA2a-dependent ATPase activity was identified as the portion of total hydrolytic activity inhibited by cyclopiazonic acid (CPA, 10 µM). Technical replicates were used to ensure the reliability of single values.
Reconstitution of SERCA1 with PLN1-32 synthetic fragment
Adult healthy male guinea-pigs were used to prepare SERCA1-enriched SR microsomes from fast-twitch hind leg muscles. Microsomes were prepared as described for SERCA2a preparations. For reconstitution experiments, SERCA1 (PLN-free) was pre-incubated with synthetic PLN1-32 fragment (canine sequence, Biomatik Corporation, Canada) in 20 mM imidazole, pH 7, at 1:300 SERCA1:PLN ratio for 30 min at room temperature. After pre-incubation, SERCA1 (PLN-free) alone, or reconstituted with PLN1-32 […]
fragment, was utilized for SERCA activity measurement by using 32P-ATP hydrolysis method at different

SERCA2a [3] = target: T3, SERCA2a (Rattus norvegicus, UniProt P11507); experiment: SERCA2a ATPase activity in cardiac homogenates from diabetic (STZ) rats; type: biochemical
T3 construct: tissues from healthy and STZ rats were homogenized; from tissue; host or cells: Sprague Dawley rat left ventricle homogenates (healthy or STZ-diabetic)
T3 sequence (P11507 1-997 isoform P11507-2): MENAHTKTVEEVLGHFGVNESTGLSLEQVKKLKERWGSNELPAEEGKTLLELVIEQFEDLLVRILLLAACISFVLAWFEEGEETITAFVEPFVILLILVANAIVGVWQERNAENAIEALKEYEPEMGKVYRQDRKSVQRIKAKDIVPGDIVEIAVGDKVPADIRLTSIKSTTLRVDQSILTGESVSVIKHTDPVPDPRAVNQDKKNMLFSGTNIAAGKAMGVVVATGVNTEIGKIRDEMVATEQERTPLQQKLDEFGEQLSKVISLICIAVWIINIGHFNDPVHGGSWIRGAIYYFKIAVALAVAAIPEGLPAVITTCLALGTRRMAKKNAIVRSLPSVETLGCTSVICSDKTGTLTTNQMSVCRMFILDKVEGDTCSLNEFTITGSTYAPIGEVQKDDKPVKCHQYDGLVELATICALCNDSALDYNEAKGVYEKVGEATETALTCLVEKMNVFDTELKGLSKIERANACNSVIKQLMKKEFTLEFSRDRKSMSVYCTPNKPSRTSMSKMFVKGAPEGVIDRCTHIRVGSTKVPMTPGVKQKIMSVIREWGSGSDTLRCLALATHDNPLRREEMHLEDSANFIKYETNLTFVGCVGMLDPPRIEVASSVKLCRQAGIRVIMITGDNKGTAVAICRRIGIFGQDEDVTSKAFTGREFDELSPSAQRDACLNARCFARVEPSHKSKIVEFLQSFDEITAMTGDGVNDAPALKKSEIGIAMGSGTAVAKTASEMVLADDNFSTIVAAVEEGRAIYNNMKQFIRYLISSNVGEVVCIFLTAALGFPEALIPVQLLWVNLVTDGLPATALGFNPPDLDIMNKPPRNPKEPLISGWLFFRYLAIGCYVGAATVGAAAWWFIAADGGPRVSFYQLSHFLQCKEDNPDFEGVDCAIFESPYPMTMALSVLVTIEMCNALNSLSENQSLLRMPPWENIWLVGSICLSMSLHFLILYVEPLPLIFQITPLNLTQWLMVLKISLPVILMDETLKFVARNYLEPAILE
Description: as §5, §6, §7, §1, §2, §3
In the case of rat hearts, cardiac homogenates were used to have sufficient material to replicate the experiments within a single animal. Hearts were excised from rats eight weeks after STZ injection. LV tissues from healthy and STZ rats were homogenized (1 g in 4 ml buffer) in a medium containing 300 mM sucrose, 50 mM K-phosphate, 10 mM NaF, 0.3 mM PMSF, 0.5 mM DTT, pH 7, and centrifuged at 35,000 g for 30 min. The final pellet was resuspended in the same buffer.
SERCA2a ATPase activity was measured as the rate of 32P-ATP release at multiple Ca2+ concentrations (100-2000 nM) in the absence and presence of tested compounds, as previously described5. Increasing concentrations of each compound were pre-incubated with 2 μg of cardiac preparations for 5 min at 4° C in 80 μl of a solution containing 100 mM KCl, 5 mM MgCl2, 1 μM A23187, 20 mM Tris, pH 7.5. Then, 20 μl of 5 mM Tris-ATP containing 50 nCi of 32P-ATP (3-10 Ci/mmol, Perkin Elmer) were added. […] 32P was separated by centrifugation with activated charcoal (Norit A, Serva) and the radioactivity was measured. […]

T1 sequence (A0A286XFU8 entry or part of it): as the sequence (P11507 1-997 isoform P11507-2) above, with A219V, I392M, Q396H, V402I, A470V, P535L, S713A, I889V counted along it

For `C[C@]12CC[C@H](CC(=O)O)C[C@@H]1[C@@H](O)C[C@@H]1[C@@H]2CC[C@]2(C)C(=O)CC[C@@H]12` [Compound 8], the “SERCA2a KdCa reduced by” value (SERCA2a [1]) was 14%, the “SERCA2a Vmax” value (SERCA2a [1]) was “without affecting Vmax” and the “skeletal SERCA1 activity in the absence of PLN” value (SERCA1) was “failed to affect”. For the same compound, the “SERCA1 KdCa after reconstitution with PLN1–32” value [2] was “dose-dependently reversed the PLN-induced shift in KdCa”, the “SERCA1 Vmax after reconstitution with PLN1–32” value [2] was “unchanged” and the “SERCA2a Vmax increase” value (SERCA2a [3]; 300 nM) was “+17%”. For the same compound, the “SERCA2a Vmax increase” value (SERCA2a [3]; 500 nM) was “+28%”.

In the case of `C[C@]12CC[C@H](CCCC(=O)O)C[C@@H]1[C@@H](O)C[C@@H]1[C@@H]2CC[C@]2(C)C(=O)CC[C@@H]12` [Compound 5], the “SERCA2a KdCa reduced by” value (SERCA2a [1]) is reported as 16%, the “SERCA2a Vmax” value (SERCA2a [1]) is reported as “without affecting Vmax” and the “SERCA2a Stimulation @100 nM (DELTA% KdCa)” value (SERCA2a [1]; 100 nM) is reported as -21%. The “skeletal SERCA1 activity in the absence of PLN” value (SERCA1) was “failed to affect”, the “SERCA1 KdCa after reconstitution with PLN1–32” value [2] was “dose-dependently reversed the PLN-induced shift in KdCa” and the “SERCA1 Vmax after reconstitution with PLN1–32” value [2] was “unchanged”. For the same compound, the “SERCA2a Vmax increase” value (SERCA2a [3]; 300 nM) was “+26%” and the “SERCA2a Vmax increase” value (SERCA2a [3]; 500 nM) was “+25%”.
